Columns and labels:
Details in all cases: exposure time: 90 min
11235 [1] = donor line of iPSC-derived cardiomyocytes; assay: POD (EC95) for loss of peak frequency (asystole) vs vehicle; higher = less potent (higher point of departure)
Procedure, shortened: (§1)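 Cardiomyocytes derived from human iPSCs of 16 donors were grown 14 days in gelatin-coated 384-well plates, loaded 2 h with a fluorescent Ca2+ dye, then exposed for 90 min at 37 °C to final concentrations of 0.1, 1, 10 and 100 µM in 0.5% DMSO. A FLIPR Tetra recorded Ca2+ flux at 8 frames/s for 100 s before and after exposure. Points of departure for each donor were derived by hierarchical Bayesian Hill fitting of vehicle-normalised beat frequency, decay-to-rise ratio or peak frequency. The thresholds applied were a 5% change, or a 95% loss for peak frequency.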

1118 [2] = donor line of iPSC-derived cardiomyocytes; assay: as above
Procedure, shortened: as §1

20032 [3] = donor line of iPSC-derived cardiomyocytes; assay: as above
Procedure, shortened: as §1

1083 [4] = donor line of iPSC-derived cardiomyocytes; assay: as above
Procedure, shortened: as §1

1565 [5] = donor line of iPSC-derived cardiomyocytes; assay: as above
Procedure, shortened: as §1

1434 [6] = donor line of iPSC-derived cardiomyocytes; assay: as above
Procedure, shortened: as §1

1531 = donor line of iPSC-derived cardiomyocytes; assay: as above
Procedure, shortened: as §1

30171 [7] = donor line of iPSC-derived cardiomyocytes; assay: as above
Procedure, shortened: as §1

1309 = donor line of iPSC-derived cardiomyocytes; assay: POD (EC05) for increase in Ca2+ transient decay-to-rise ratio (QT prolongation) vs vehicle; higher = less potent (higher point of departure)
Protocol: (§2)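 Human iPSC-derived cardiomyocytes from 16 donors were exposed for 90 min at 37 °C to each PFAS at 0.1, 1, 10 and 100 µM in 0.5% DMSO, 384-well plates. Kinetic Ca2+ flux (FLIPR) and Hoechst nuclei counts were normalised to vehicle wells and fitted with a hierarchical Bayesian Hill model to give donor-specific PODs: EC05 for beat-rate increase or decrease and for decay-to-rise ratio increase (QT proxy), EC95 for peak-frequency loss (asystole), EC10 for total cell number loss. 0.03 µM is the lower bound.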

11235 [8] = assay: as above
Protocol: as §2

1392 = donor line of iPSC-derived cardiomyocytes; assay: as above
Protocol: as §2

1118 [9] = assay: as above
Protocol: as §2

20032 [10] = assay: as above
Protocol: as §2

1083 [11] = assay: as above
Protocol: as §2

1565 [12] = assay: as above
Protocol: as §2

30145 = donor line of iPSC-derived cardiomyocytes; assay: as above
Protocol: as §2

1368 = donor line of iPSC-derived cardiomyocytes; assay: as above
Protocol: as §2

1434 [13] = assay: as above
Protocol: as §2

20084 = donor line of iPSC-derived cardiomyocytes; assay: as above
Protocol: as §2

30171 [14] = assay: as above
Protocol: as §2

OCCC(F)(F)C(F)(F)C(F)(F)C(F)(F)C(F)(F)C(F)(F)F [6:2 Fluorotelomer alcohol]
POD vs vehicle 11235 [1]: > 100 µM | POD vs vehicle 1118 [2]: > 100 µM | POD vs vehicle 20032 [3]: > 100 µM | POD vs vehicle 1083 [4]: > 100 µM | POD vs vehicle 1565 [5]: > 100 µM | POD vs vehicle 1434 [6]: > 100 µM | POD vs vehicle 1531: > 100 µM | POD vs vehicle 30171 [7]: > 100 µM | POD vs vehicle 1309: > 100 µM | POD vs vehicle 11235 [8]: > 100 µM | POD vs vehicle 1392: > 100 µM | POD vs vehicle 1118 [9]: > 100 µM | POD vs vehicle 20032 [10]: > 100 µM | POD vs vehicle 1083 [11]: > 100 µM | POD vs vehicle 1565 [12]: > 100 µM | POD vs vehicle 30145: > 100 µM | POD vs vehicle 1368: > 100 µM | POD vs vehicle 1434 [13]: > 100 µM | POD vs vehicle 20084: > 100 µM | POD vs vehicle 30171 [14]: > 100 µM

O=S(=O)(O)CCC(F)(F)C(F)(F)C(F)(F)C(F)(F)C(F)(F)C(F)(F)F [6:2 Fluorotelomer sulfonic acid]
POD vs vehicle 11235 [1]: > 100 µM | POD vs vehicle 1118 [2]: > 100 µM | POD vs vehicle 20032 [3]: > 100 µM | POD vs vehicle 1083 [4]: > 100 µM | POD vs vehicle 1565 [5]: > 100 µM | POD vs vehicle 1434 [6]: > 100 µM | POD vs vehicle 1531: > 100 µM | POD vs vehicle 30171 [7]: > 100 µM | POD vs vehicle 1309: > 100 µM | POD vs vehicle 11235 [8]: > 100 µM | POD vs vehicle 1392: > 100 µM | POD vs vehicle 1118 [9]: > 100 µM | POD vs vehicle 20032 [10]: > 100 µM | POD vs vehicle 1083 [11]: > 100 µM | POD vs vehicle 1565 [12]: > 100 µM | POD vs vehicle 30145: > 100 µM | POD vs vehicle 1368: > 100 µM | POD vs vehicle 1434 [13]: > 100 µM | POD vs vehicle 20084: > 100 µM | POD vs vehicle 30171 [14]: > 100 µM

OCCC(F)(F)C(F)(F)C(F)(F)C(F)(F)C(F)(F)C(F)(F)C(F)(F)C(F)(F)F [8:2 Fluorotelomer alcohol]
POD vs vehicle 11235 [1]: > 100 µM | POD vs vehicle 1118 [2]: > 100 µM | POD vs vehicle 20032 [3]: > 100 µM | POD vs vehicle 1083 [4]: > 100 µM | POD vs vehicle 1565 [5]: > 100 µM | POD vs vehicle 1434 [6]: > 100 µM | POD vs vehicle 1531: > 100 µM | POD vs vehicle 30171 [7]: > 100 µM | POD vs vehicle 1309: > 100 µM | POD vs vehicle 11235 [8]: > 100 µM | POD vs vehicle 1392: > 100 µM | POD vs vehicle 1118 [9]: > 100 µM | POD vs vehicle 20032 [10]: > 100 µM | POD vs vehicle 1083 [11]: > 100 µM | POD vs vehicle 1565 [12]: > 100 µM | POD vs vehicle 30145: > 100 µM | POD vs vehicle 1368: > 100 µM | POD vs vehicle 1434 [13]: > 100 µM | POD vs vehicle 20084: > 100 µM | POD vs vehicle 30171 [14]: > 100 µM

O=S(=O)(O)CCC(F)(F)C(F)(F)C(F)(F)C(F)(F)C(F)(F)C(F)(F)C(F)(F)C(F)(F)F [8:2 Fluorotelomer sulfonic acid]
POD vs vehicle 11235 [1]: > 100 µM | POD vs vehicle 1118 [2]: > 100 µM | POD vs vehicle 20032 [3]: > 100 µM | POD vs vehicle 1083 [4]: > 100 µM | POD vs vehicle 1565 [5]: > 100 µM | POD vs vehicle 1434 [6]: > 100 µM | POD vs vehicle 1531: 16.5 µM | POD vs vehicle 30171 [7]: > 100 µM | POD vs vehicle 1309: > 100 µM | POD vs vehicle 11235 [8]: > 100 µM | POD vs vehicle 1392: > 100 µM | POD vs vehicle 1118 [9]: > 100 µM | POD vs vehicle 20032 [10]: > 100 µM | POD vs vehicle 1083 [11]: > 100 µM | POD vs vehicle 1565 [12]: > 100 µM | POD vs vehicle 30145: > 100 µM | POD vs vehicle 1368: > 100 µM | POD vs vehicle 1434 [13]: 17.2 µM | POD vs vehicle 20084: 21.9 µM | POD vs vehicle 30171 [14]: 20.1 µM

O=C(O)C(F)(F)C(F)(F)C(F)(F)C(F)(F)C(F)(F)C(F)(F)C(F)(F)C(F)(F)Cl [9-Chloro-perfluorononanoic_acid]
POD vs vehicle 11235 [1]: 14.7 µM | POD vs vehicle 1118 [2]: 84.3 µM | POD vs vehicle 20032 [3]: > 100 µM | POD vs vehicle 1083 [4]: > 100 µM | POD vs vehicle 1565 [5]: > 100 µM | POD vs vehicle 1434 [6]: 87.4 µM | POD vs vehicle 1531: > 100 µM | POD vs vehicle 30171 [7]: 44.1 µM | POD vs vehicle 1309: > 100 µM | POD vs vehicle 11235 [8]: > 100 µM | POD vs vehicle 1392: > 100 µM | POD vs vehicle 1118 [9]: > 100 µM | POD vs vehicle 20032 [10]: > 100 µM | POD vs vehicle 1083 [11]: > 100 µM | POD vs vehicle 1565 [12]: > 100 µM | POD vs vehicle 30145: > 100 µM | POD vs vehicle 1368: > 100 µM | POD vs vehicle 1434 [13]: > 100 µM | POD vs vehicle 20084: > 100 µM | POD vs vehicle 30171 [14]: > 100 µM

O=P(O)(O)CCC(F)(F)C(F)(F)C(F)(F)C(F)(F)C(F)(F)C(F)(F)C(F)(F)C(F)(F)F [((Perfluorooctyl)ethyl)phosphonic_acid]
POD vs vehicle 11235 [1]: > 100 µM | POD vs vehicle 1118 [2]: > 100 µM | POD vs vehicle 20032 [3]: > 100 µM | POD vs vehicle 1083 [4]: > 100 µM | POD vs vehicle 1565 [5]: > 100 µM | POD vs vehicle 1434 [6]: > 100 µM | POD vs vehicle 1531: > 100 µM | POD vs vehicle 30171 [7]: > 100 µM | POD vs vehicle 1309: > 100 µM | POD vs vehicle 11235 [8]: > 100 µM | POD vs vehicle 1392: > 100 µM | POD vs vehicle 1118 [9]: > 100 µM | POD vs vehicle 20032 [10]: > 100 µM | POD vs vehicle 1083 [11]: > 100 µM | POD vs vehicle 1565 [12]: > 100 µM | POD vs vehicle 30145: > 100 µM | POD vs vehicle 1368: > 100 µM | POD vs vehicle 1434 [13]: > 100 µM | POD vs vehicle 20084: > 100 µM | POD vs vehicle 30171 [14]: > 100 µM

O=C([O-])C(F)(F)C(F)(F)C(F)(F)C(F)(F)C(F)(F)C(F)(F)C(F)(F)F.[NH4+] [Ammonium_perfluorooctanoate]
POD vs vehicle 11235 [1]: 72.4 µM | POD vs vehicle 1118 [2]: > 100 µM | POD vs vehicle 20032 [3]: > 100 µM | POD vs vehicle 1083 [4]: > 100 µM | POD vs vehicle 1565 [5]: > 100 µM | POD vs vehicle 1434 [6]: > 100 µM | POD vs vehicle 1531: > 100 µM | POD vs vehicle 30171 [7]: > 100 µM | POD vs vehicle 1309: > 100 µM | POD vs vehicle 11235 [8]: > 100 µM | POD vs vehicle 1392: > 100 µM | POD vs vehicle 1118 [9]: > 100 µM | POD vs vehicle 20032 [10]: > 100 µM | POD vs vehicle 1083 [11]: > 100 µM | POD vs vehicle 1565 [12]: > 100 µM | POD vs vehicle 30145: > 100 µM | POD vs vehicle 1368: > 100 µM | POD vs vehicle 1434 [13]: > 100 µM | POD vs vehicle 20084: > 100 µM | POD vs vehicle 30171 [14]: > 100 µM

OCC(F)(F)C(F)(F)C(F)(F)C(F)(F)C(F)(F)C(F)F [Dodecafluoroheptanol]
POD vs vehicle 11235 [1]: 48.1 µM | POD vs vehicle 1118 [2]: 7.54 µM | POD vs vehicle 20032 [3]: 47.7 µM | POD vs vehicle 1083 [4]: 38.1 µM | POD vs vehicle 1565 [5]: 50.6 µM | POD vs vehicle 1434 [6]: 45.8 µM | POD vs vehicle 1531: 42.6 µM | POD vs vehicle 30171 [7]: 51.8 µM | POD vs vehicle 1309: > 100 µM | POD vs vehicle 11235 [8]: > 100 µM | POD vs vehicle 1392: > 100 µM | POD vs vehicle 1118 [9]: > 100 µM | POD vs vehicle 20032 [10]: 0.504 µM | POD vs vehicle 1083 [11]: > 100 µM | POD vs vehicle 1565 [12]: > 100 µM | POD vs vehicle 30145: > 100 µM | POD vs vehicle 1368: > 100 µM | POD vs vehicle 1434 [13]: > 100 µM | POD vs vehicle 20084: > 100 µM | POD vs vehicle 30171 [14]: > 100 µM

OCC(F)(F)OC(F)(F)C(F)(F)OC(F)(F)C(F)(F)OC(F)(F)F [Fluorinated_triethylene_glycol_monomethyl_ether]
POD vs vehicle 11235 [1]: > 100 µM | POD vs vehicle 1118 [2]: 9.61 µM | POD vs vehicle 20032 [3]: > 100 µM | POD vs vehicle 1083 [4]: > 100 µM | POD vs vehicle 1565 [5]: > 100 µM | POD vs vehicle 1434 [6]: > 100 µM | POD vs vehicle 1531: > 100 µM | POD vs vehicle 30171 [7]: > 100 µM | POD vs vehicle 1309: > 100 µM | POD vs vehicle 11235 [8]: > 100 µM | POD vs vehicle 1392: > 100 µM | POD vs vehicle 1118 [9]: > 100 µM | POD vs vehicle 20032 [10]: > 100 µM | POD vs vehicle 1083 [11]: > 100 µM | POD vs vehicle 1565 [12]: > 100 µM | POD vs vehicle 30145: > 100 µM | POD vs vehicle 1368: > 100 µM | POD vs vehicle 1434 [13]: > 100 µM | POD vs vehicle 20084: > 100 µM | POD vs vehicle 30171 [14]: > 100 µM

Reference: the supplement of paper PMC11368000
